System in the first data set: not listed separately
Nature of the data set: methemoglobin formation after oral administration to cats. It is filed as in vivo. Particulars: 200 mg/kg by oral route. The text has this:
Moreover, in contrast to Dapsone®, the new compounds are well tolerated and in particular show a very low methemoglobin formulation.
With `N#Cc1cc(N)ccc1S(=O)(=O)c1ccc(N)cc1` [Substance I, 4,4'-Diamino-2-cyano-diphenylsulfone], the methemoglobin formulation entry is “no methemoglobin formulation is detected”. On the same count and under the same terms, as for `CCCNc1ccc(S(=O)(=O)c2ccc(N)cc2)c(C)c1` [Substance M, 4'-Amino-2-methyl-4-propylamino-diphenylsulfone], the entry is “no methemoglobin formulation is detected”.

Another data set deals with 7,8-dihydropteroic acid-synthetase. In words: inhibiting effect on 7,8-dihydropteroic acid synthesis in cell-free enzyme extract of plasmodia (HPLC). It is filed as biochemical. Particulars: concentration giving 50% reduction of 7,8-dihydropteroic acid synthesis; cell-free enzyme extract of Plasmodium berghei; incubation 4 hours; HPLC/UV; read-out: i50. The protocol:
M=4'-Amino-2-methyl-4-propylamino-diphenylsulfone were tested for their biological activity in cell-free enzyme extract of Plasmodiumberghei as follows.
Plasmodia are isolated from mouse blood infected with Plasmodium berghei in accordance with the following reference (Heidrich, H. -G. et al., Z. Parasitenkd. 59: 151 (1979). The plasmodia were opened by ultrasound. Proteins with […] acid synthetase activity are concentrated by gel filtration.
The inhibiting effect on 7,8-dihydropteroic acid synthesis of plasmodia is determined as follows:
Under optimum reaction conditions, i.e. Vmax for the reaction which is to be inhibited, the concentration of inhibitor in the new compounds resulting in a 50% reduction in the enzyme synthesis performance is determined. For this purpose the quantity of 7,8-dihydropteroic acid synthesised from the enzyme extract is determined by means of high performance liquid chromatography (HPLC) using a UV detector after an incubation period of 4 hours. It was established that the synthesis of 7,8-dihydropteroic acid proceeded in a linear manner during this period.
The i50 values obtained by this method for a selection of the compounds claimed and those of the comparison preparations bis (4-aminophenyl)sulfone (Dapsone®, DDS) and N^1 -(5,6-dimethoxy-4-pyrimidinyl)-sulfanilamide (Fanasil®) are given in the following Table: […]
For the molecule `Nc1ccc(S(=O)(=O)c2ccc(N)cc2)cc1` [Dapsone ®, bis (4-aminophenyl)sulfone, reference compound], the IC50 worked out at 12.4 µM. The same measure, in the same setting: as for `COc1ncnc(NS(=O)(=O)c2ccc(N)cc2)c1OC` [Fanasil ®, N^1-(5,6-dimethoxy-4-pyrimidinyl)-sulfanilamide, reference compound], the figure is 200 µM; as for `CCNc1ccc(S(=O)(=O)c2ccc(N)cc2)c(Cl)c1` [Substance A, 4-Ethylamino-4'-amino-2-chloro-diphenylsulfone], 2.1 µM. Still for that read-out and setting: as for `CC(C)Nc1ccc(S(=O)(=O)c2ccc(N)cc2)c(Cl)c1` [Substance B, 4'-Amino-2-chloro-4-isopropylamino-diphenylsulfone], the figure is 2.67 µM; as for `CCNc1ccc(S(=O)(=O)c2ccc(N)cc2)c(C)c1` [Substance C, 4-Ethylamino-4'-amino-2-methyl-diphenylsulfone], 2.62 µM; as for `CCNc1ccc(S(=O)(=O)c2ccc(N)cc2)c(C(F)(F)F)c1` [Substance D, 4-Ethylamino-4'-amino-2-trifluoromethyl-diphenyl-sulfone], 5.86 µM. `Nc1ccc(S(=O)(=O)c2ccc(N)cc2CO)cc1` [Substance E, 4,4'-Diamino-2-hydroxymethyl-diphenylsulfone]: the IC50 is 4.9 µM.

On to `CC(O)c1cc(N)ccc1S(=O)(=O)c1ccc(N)cc1` (stereo not shown) [Substance F, 4,4'-Diamino-2-(1-hydroxyethyl)-diphenylsulfone], for which the IC50 came to 10.4 µM. Same read-out and setting: in the case of `CN(C)c1cc(N)ccc1S(=O)(=O)c1ccc(N)cc1` [Substance G, 4,4'-Diamino-2-(N,N-dimethylamino)-diphenylsulfone] it was 12.9 µM; in that of `CNc1cc(N)ccc1S(=O)(=O)c1ccc(N)cc1` [Substance H, 4,4'-Diamino-2-(N-methylamino)-diphenylsulfone], 4.1 µM; in that of `N#Cc1cc(N)ccc1S(=O)(=O)c1ccc(N)cc1` [Substance I, 4,4'-Diamino-2-cyano-diphenylsulfone], 12.5 µM.

Take `CC(=O)c1cc(N)ccc1S(=O)(=O)c1ccc(N)cc1` [Substance K, 4,4'-Diamino-2-methylcarbonyl-diphenylsulfone]: the IC50 was 12.9 µM. For `CNc1ccc(S(=O)(=O)c2ccc(N)cc2)c(C)c1` [Substance L, 4'-Amino-2-methyl-4-methylamino-diphenylsulfone], the IC50 was determined as 2.94 µM. Same read-out and setting: in the case of `CCCNc1ccc(S(=O)(=O)c2ccc(N)cc2)c(C)c1` [Substance M, 4'-Amino-2-methyl-4-propylamino-diphenylsulfone] it was 2.44 µM.

The values are drawn from patent US5084449A, “Anti-bacterial compositions comprising a substituted bis-(4-aminophenyl)-sulfone and a dihydro-folic acid reductase” (Dr. Karl Thomae GmbH, priority 1984, dated 1992).
